From PubChem BioAssay (NCI) come the findings set out here.

Where “and” joins values, the source holds several entries; their conditions need not be identical. Equal entries are not always repeated.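 Each compound was tested at five concentrations against cells in 96-well plates for 48 hours. GI50: concentration for 50% inhibition of growth. TGI marks complete inhibition of growth.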

Test systems include NCI-H23 lung; MCF7 breast; SNB-19 CNS; ACHN renal; RPMI-8226 leukemia; MALME-3M melanoma; BT-549 breast; COLO 205 colon; CCRF-CEM leukemia; HL-60(TB) leukemia.
What all share (experiment): growth of human tumour cells (NCI), 48 h

Consider `CCC(C(=O)C(=O)OC)P1(=O)OC(C)(C)CN1C(C)(C)C` (centres undefined), for which the TGI in the assay on NCI-H23 lung, with MCF7 breast, in the assay with SNB-19 CNS, in the assay with ACHN renal, in the assay on RPMI-8226 leukemia and in the assay with MALME-3M melanoma was over 100 µM each time. Moreover, the TGI with BT-549 breast and in the assay with COLO 205 colon was over 100 µM throughout.

Consider `CC(=O)c1cnc2oc3ccc(O)cc3c2c1-c1ccccc1`, for which the TGI in the assay with NCI-H23 lung, in the assay with MCF7 breast, in the assay with CCRF-CEM leukemia, with SNB-19 CNS, in the assay on ACHN renal and in the assay with RPMI-8226 leukemia was over 100 µM each time. The TGI was over 100 µM in the assay on HL-60(TB) leukemia, 81.2 µM in the assay on MALME-3M melanoma and over 100 µM with COLO 205 colon.

As for `Cc1c2c(OCC3CCCCO3)nn(C)c(=O)c2c(C)n1-c1ccccc1` (centres undefined), the TGI with NCI-H23 lung was 44.2 µM; in the assay on MCF7 breast, 30.3 µM; with SNB-19 CNS, 46.8 µM; in the assay on ACHN renal it was 31.1 µM; in the assay on RPMI-8226 leukemia it was over 100 µM; in the assay on MALME-3M melanoma it was 33.1 µM. Also, the TGI in the assay with BT-549 breast is 38.2 µM; with COLO 205 colon it was 33.3 µM.

Consider `N#Cc1nc(NC(=O)c2ccccc2C(=O)O)c(C#N)[nH]1`, for which the TGI in the assay with NCI-H23 lung, in the assay on MCF7 breast, with CCRF-CEM leukemia, in the assay with SNB-19 CNS, in the assay on ACHN renal and with RPMI-8226 leukemia was over 100 µM each time. For the same molecule, the TGI in the assay with HL-60(TB) leukemia, with MALME-3M melanoma and with COLO 205 colon was over 100 µM throughout.

As for `CN(C)CC1CCC(CN(C)C)C1=O` (centres undefined), the TGI in the assay with NCI-H23 lung was 12.9 µM; with MCF7 breast, 1.8 µM; in the assay with CCRF-CEM leukemia, over 100 µM; in the assay on SNB-19 CNS, over 100 µM; with ACHN renal, 11.1 µM; in the assay with RPMI-8226 leukemia it was 3.33 µM. Also, the TGI in the assay with MALME-3M melanoma was determined as 3.67 µM; in the assay on COLO 205 colon it was 1.41 µM. Further, the GI50 in the assay with CCRF-CEM leukemia was 0.319 µM.

`CC(NC(=O)N(C)C)NC(=O)N(C)C`: the TGI in the assay with NCI-H23 lung, in the assay on MCF7 breast, in the assay with CCRF-CEM leukemia, with SNB-19 CNS, in the assay with ACHN renal and in the assay with RPMI-8226 leukemia was over 10 µM in each case. Moreover, the TGI with HL-60(TB) leukemia, with MALME-3M melanoma and in the assay on COLO 205 colon was over 10 µM each time.

Take `CCCSc1nc(-c2ccc(OC)cc2)c(C#N)c(=O)n1C1OC(COC(C)=O)C(OC(C)=O)C(OC(C)=O)C1OC(C)=O` (centres undefined): the TGI with NCI-H23 lung, with CCRF-CEM leukemia, in the assay on SNB-19 CNS, with ACHN renal, in the assay on RPMI-8226 leukemia and in the assay with HL-60(TB) leukemia was over 100 µM each time. Moreover, the TGI with MALME-3M melanoma and in the assay with COLO 205 colon was over 100 µM in each case. Further, the GI50 was > 100 µM and 45.4 µM with SNB-19 CNS; > 100 µM and 32.3 µM in the assay on MALME-3M melanoma.

As to `OCc1ccc2c(c1)CC1(Cc3ccc(/C=N/O)cc3C1)C2` (centres undefined), the TGI with NCI-H23 lung is 56.3 µM; in the assay with CCRF-CEM leukemia, over 100 µM; in the assay on SNB-19 CNS, over 100 µM; in the assay with ACHN renal, over 80.6 µM; with RPMI-8226 leukemia, 28.6 µM; in the assay with MALME-3M melanoma, over 78.8 µM. The TGI is over 66.4 µM in the assay with BT-549 breast and 13.9 µM in the assay on COLO 205 colon.

In the case of `NS(=O)(=O)c1cccc(NC(=S)NC(=O)Nc2ccc(Cl)c(Cl)c2)c1`, the TGI with NCI-H23 lung was found to be 34 µM; in the assay with MCF7 breast, 37.1 µM; in the assay with CCRF-CEM leukemia, 78.1 µM; in the assay on SNB-19 CNS, 58.2 µM; with ACHN renal, 48.7 µM; with RPMI-8226 leukemia, 41.7 µM. Besides, the TGI with MALME-3M melanoma turned out to be 29.4 µM; with BT-549 breast, 32.1 µM; with COLO 205 colon, 35.4 µM.

Turning to `Nc1nn2c(=O)c3ccccc3nc2s1`, the TGI in the assay on NCI-H23 lung was over 100 µM; in the assay on MCF7 breast, over 100 µM; in the assay on CCRF-CEM leukemia it was 46.9 µM; with SNB-19 CNS, over 100 µM; in the assay with ACHN renal, over 100 µM; with RPMI-8226 leukemia, over 100 µM. The values for the TGI in the assay with BT-549 breast and in the assay with COLO 205 colon were 77.9 µM and over 100 µM, respectively.

Consider `Oc1[nH]c2ccccc2c1N=NC(=S)Nc1ccc(Cl)cc1`, for which the TGI in the assay with NCI-H23 lung, with MCF7 breast, in the assay on CCRF-CEM leukemia, with SNB-19 CNS, in the assay on ACHN renal and in the assay on RPMI-8226 leukemia was over 100 µM each time. The TGI with HL-60(TB) leukemia was over 100 µM; in the assay on MALME-3M melanoma, 54.7 µM; with COLO 205 colon, over 100 µM.

For `CC(=O)OC1C(COC(=O)c2ccccc2)OC(Nc2ncc(-c3ccc(Br)cc3)s2)C(OC(=O)c2ccccc2)C1OC(=O)c1ccccc1` (centres undefined), the TGI in the assay with NCI-H23 lung, in the assay with MCF7 breast, in the assay on SNB-19 CNS, in the assay with ACHN renal, in the assay with RPMI-8226 leukemia and in the assay with MALME-3M melanoma was over 100 µM each time. Further, the TGI in the assay on BT-549 breast and with COLO 205 colon was over 100 µM throughout.

As to `N#Cc1nc(C2CCC2)oc1N`, the TGI in the assay on NCI-H23 lung was over 100 µM; with MCF7 breast, over 100 µM; with CCRF-CEM leukemia it was 54.7 µM; in the assay with SNB-19 CNS, over 100 µM; in the assay on ACHN renal, over 100 µM; with RPMI-8226 leukemia, over 100 µM. Besides, the TGI in the assay on HL-60(TB) leukemia, in the assay on MALME-3M melanoma and in the assay with COLO 205 colon was over 100 µM each time.

Consider `CN(C)CCC(=O)/C=C\c1ccccc1`, for which the TGI was 25 µM with CCRF-CEM leukemia; over 100 µM in the assay with SNB-19 CNS; 32.5 µM in the assay on ACHN renal; 34.4 µM in the assay with RPMI-8226 leukemia; 36.8 µM in the assay with HL-60(TB) leukemia; 32.8 µM in the assay on MALME-3M melanoma. In the assay with COLO 205 colon, this molecule had a TGI of 29.3 µM.

For `O=C1NCN(c2ccccc2)C12CCN(CCCN1CCN(CCOC(c3ccc(F)cc3)c3ccc(F)cc3)CC1)CC2`, the TGI with NCI-H23 lung was 9.69 µM; with MCF7 breast, 3.99 µM; in the assay with CCRF-CEM leukemia, over 100 µM; in the assay on SNB-19 CNS, 6.57 µM; with ACHN renal it was 3.85 µM; with RPMI-8226 leukemia, 4.95 µM. In addition, the TGI was 2.68 µM in the assay with MALME-3M melanoma, 5.44 µM in the assay on BT-549 breast and 3.18 µM with COLO 205 colon.

With `COc1cc2c(c(O)c1OC)C(=O)C(Cc1ccc(O)cc1)CO2` (centres undefined), the TGI in the assay with NCI-H23 lung was over 100 µM; with MCF7 breast it was 8.65 µM; in the assay with CCRF-CEM leukemia, over 100 µM; in the assay on SNB-19 CNS it was 74.1 µM; in the assay on ACHN renal it was over 100 µM; in the assay with RPMI-8226 leukemia, 60.3 µM. Moreover, the TGI in the assay on HL-60(TB) leukemia was 98.3 µM; in the assay with MALME-3M melanoma it was over 100 µM; with COLO 205 colon it was over 100 µM.

Regarding `Cn1c2ccccc2c(=O)c2c(O)cc3c(c21)C=CC1(CCCCC1)O3`, the TGI in the assay with NCI-H23 lung, with MCF7 breast, with CCRF-CEM leukemia, with SNB-19 CNS, in the assay with ACHN renal and with RPMI-8226 leukemia was over 10 µM each time. Besides, the TGI in the assay with MALME-3M melanoma, in the assay on BT-549 breast and in the assay with COLO 205 colon was over 10 µM in each case.

In the case of `COc1ccc(C2c3cc4c(cc3OC(N3CCOCC3)C2C)OCO4)c(OC)c1OC` (centres undefined), the TGI in the assay with NCI-H23 lung was over 100 µM; with MCF7 breast, 80.2 µM; with CCRF-CEM leukemia it was 55.4 µM; in the assay on SNB-19 CNS it was 39.1 µM; in the assay on ACHN renal it was 64.9 µM; in the assay on RPMI-8226 leukemia it was 39.8 µM. The molecule also registered a TGI in the assay on COLO 205 colon of 33.6 µM.

In the case of `CN(C)CCNC(=O)c1cccc2nc(-c3ccccc3)oc12`, the TGI in the assay with NCI-H23 lung was over 100 µM; in the assay on MCF7 breast, 28.2 µM; with CCRF-CEM leukemia, over 100 µM; in the assay with SNB-19 CNS, over 79.8 µM; in the assay on RPMI-8226 leukemia, over 100 µM; in the assay on HL-60(TB) leukemia it was 96.2 µM. In addition, the TGI in the assay on MALME-3M melanoma worked out at 99 µM; in the assay with COLO 205 colon, 42.8 µM.

In the case of `CCON1CC(C(=O)OC)=C(O)C1=O`, the TGI with NCI-H23 lung, with MCF7 breast, with SNB-19 CNS, in the assay with ACHN renal, in the assay with RPMI-8226 leukemia and with MALME-3M melanoma was over 100 µM in each case. The TGI in the assay on BT-549 breast and in the assay with COLO 205 colon was over 100 µM each time.

`COc1c(O)c2c(=O)cc(OC)c3c4c(OC)cc(=O)c5c(O)c(OC)c6c(c(c1C(C(C)O)C6C(C)O)c23)c54` (centres undefined): the TGI was determined as 3.71 µM in the assay with NCI-H23 lung; 4.04 µM with MCF7 breast; 3.23 µM in the assay with CCRF-CEM leukemia; 6.22 µM in the assay with SNB-19 CNS; 2.93 µM in the assay on ACHN renal; 4.8 µM in the assay with RPMI-8226 leukemia. Also, the TGI was determined as 1.67 µM in the assay with HL-60(TB) leukemia, 2.75 µM in the assay on MALME-3M melanoma and 4.22 µM in the assay on COLO 205 colon.

Consider `CC(=O)OCc1c(O)c2c(c(O)c1COC(C)=O)C(=O)C=CC2=O`, for which the TGI with NCI-H23 lung was 29 µM; with CCRF-CEM leukemia, 13.7 µM; in the assay on ACHN renal it was 21.8 µM; with RPMI-8226 leukemia, over 100 µM; in the assay with HL-60(TB) leukemia, 46.7 µM; in the assay on MALME-3M melanoma, 20.5 µM. The molecule further yielded a TGI with COLO 205 colon of 10.5 µM.

For `CCOC(=O)/C(O)=C1\C(=O)N(C)C(=O)C1c1cccc(OC)c1` (centres undefined), the TGI with NCI-H23 lung, with MCF7 breast, with CCRF-CEM leukemia, in the assay with SNB-19 CNS, with RPMI-8226 leukemia and in the assay with HL-60(TB) leukemia was over 100 µM throughout. Also, the TGI in the assay on MALME-3M melanoma and with COLO 205 colon was over 100 µM in each case.
